Results on one molecule are retold here after PMC5736175, “Nicotinic alpha 7 receptor agonists EVP-6124 and BMS-933043, attenuate scopolamine-induced deficits in visuo-spatial paired associates learning” (PLoS ONE, 2017).

A short description of this data set: Plasma pharmacokinetics in satellite animals (LC-MS/MS), 60 min after i.m. dose. The note with it: for concentration at 60 min: cynomolgus monkey, in vivo, nM total compound in plasma from satellite animals. The protocol: For all compounds, plasma pharmacokinetic studies were conducted in a separate cohort of cynomolgus monkeys (N = 2–3 subjects per dose) before beginning vsPAL testing to help guide dose selection. Blood samples were obtained with the animals awake and sitting in a primate chair.
Plasma concentrations of test compounds were determined using LC-MS/MS assays. In brief, 50 μL plasma and sample containing compounds was extracted by protein precipitation method with 150 μL acetonitrile containing an internal standard. A 5 μL sample of supernatant was injected into the LC-MS/MS system. Analytes were separated by reversed phase chromatography and detection of each analyte was achieved through selected reaction monitoring mode of mass spectrometry. Samples were quantified by calculated peak area ratio of analyte and internal standard against a calibration curve.

Where “and” joins values, the source holds several entries; their conditions need not be identical. Equal entries are not always repeated.

Regarding `c1cn(-c2cc(NC3=NC[C@@]4(CN5CCC4CC5)O3)ncn2)cn1` [BMS-933043, (2R)-N-(6-(1H-imidazol-1-yl)-4-pyrimidinyl)-4'H-spiro[4-azabicyclo[2.2.2]octane-2,5'-[1, 3]oxazol]-2'-amine], the “nM total compound in plasma from satellite animals, 60 min” value is 16.6 nM and 18.4 nM (0.03 mg/kg i.m., individual subjects); 60.9 nM and 70.1 nM (0.10 mg/kg i.m., individual subjects); 145.0 nM and 280.0 nM and 133.0 nM (0.30 mg/kg i.m., individual subjects); 1100.0 nM (1.00 mg/kg i.m., individual subjects). The concentration at 60 min is, setting by setting: (0.03 mg/kg, 0.03 mg/kg i.m., individual subjects) 20.1 nM; (0.03 mg/kg, 0.03 mg/kg i.m., mean) 18.4 nM; (0.1 mg/kg, 0.10 mg/kg i.m., individual subjects) 66.6 nM; (0.1 mg/kg, 0.10 mg/kg i.m., mean) 65.9 nM; (0.3 mg/kg, 0.30 mg/kg i.m., mean) 186 nM; (1 mg/kg, 1.00 mg/kg i.m., individual subjects) 739 nM. This molecule registered a concentration at 60 min (1 mg/kg, 1.00 mg/kg i.m., mean) of 920 nM.
